Results as given in article PMC9921564, “Novel Indole-Containing Hybrids Derived from Millepachine: Synthesis, Biological Evaluation and Antitumor Mechanism Study” (Molecules, 2023).

Experiments:
[1] = metabolic stability in human liver microsomes; type: in vitro ADME
Protocol: Metabolic stability is one of the most important properties in drug development. In this study, commercially available human liver microsomes were used to evaluate the metabolic stability of compound 14b. After incubation with human liver microsomes at 37 °C in vitro for an indicated time in a buffer solution containing a NADPH regenerating system, the residue of 14b was monitored by HPLC. CA-4 was used as the reference compound. […] As well known, a short half-life means a low bioavailability in vivo and is required for frequent administration with a high dose, which might result in drug accumulation and may produce related toxicity.

[2] = system: Caski (human epithelial cervical cancer cell line); test: CCK-8 antiproliferative assay, Caski; type: cell-based; conditions: Ca-Ski, 48 h, read-out: IC50, Mean ± SE, Caski
A549 cells = test: MMP detection by JC-1; type: cell-based, human; conditions: A549, 10, 20 and 50 nM, 12 h
Excerpt: The intrinsic mitochondrial pathway is one of the most well-studied mechanisms relevant to cell apoptosis. ROS accumulation and mitochondrial membrane potential (MMP) alteration play crucial roles in this pathway. In this study, a fluorescent dye including DCFH-DA and JC-1 was used to monitor the intracellular ROS and MMP, respectively.
Figure 5 ROS accumulation and MMP alteration induced by compound 14b. (A,B) The intracellular ROS detection by DCFH-DA after A549 cells treated with compound 14b at indicated concentrations for 12 h. (C,D) The detection of MMP monitored by JC-1 dye after A549 cells treated with compound 14b at the concentrations of 10, 20 and 50 nM for 12 h. […]
samples were fixed in ice-cold 70% ethanol overnight and removed with ice-cold PBS for three times. […] After the incubation, the prepared cell samples were immediately analyzed. Almost 10,000 events were detected by flow cytometry (Beckman Coulter, CytoFlex LX). The data regarding the number of cells in different phases of the cell cycle were or apoptotic cells were analyzed by […]
Caspase-3 activity was measured according to the manufacturer ’s instructions using a GreenNuc™ Caspase-3 assay kit for live cells (Beyotime, China). […] After incubation, the fluorescence intensity (excitation wavelength:
485 nm, emission wavelength: 515 nm) was recorded using a multifunctional microplate reader (Thermo Scientific, Varioskan LUX). […]

## COc1ccc(C(=O)c2ccc3c(ccn3C)c2)c2c1C=CC(C)(C)O2 [compound 14b, (5-methoxy-2,2-dimethyl-2H-chromen-8-yl)(1-methyl-1H-indol-5-yl)methanone]
[1]
  half-life: 198 min
  metabolic stability: relatively stable in the liver microsomes
[1]; 37 °C, NADPH regenerating system, 180 min
  Remaining%: 56.17%
[1]; human, liver microsomes, 37 °C, NADPH regenerating system, 30 min
  remaining at 0.5 h: 96.2%
[1]; human, liver microsomes, 37 °C, NADPH regenerating system, 60 min
  remaining at 1 h: 91.4%
[1]; human, liver microsomes, 37 °C, NADPH regenerating system, 90 min
  remaining at 1.5 h: 84.1%
[1]; human, liver microsomes, 37 °C, NADPH regenerating system, 120 min
  remaining at 2 h: 74.5%
[1]; human, liver microsomes, 37 °C, NADPH regenerating system, 150 min
  remaining at 2.5 h: 67.8%
[1]; human, liver microsomes, 37 °C, NADPH regenerating system, 180 min
  remaining at 3 h: 50.6%
[1]; human, liver microsomes, 37 °C, NADPH regenerating system, 240 min
  remaining at 4 h: 43.4%
[2]
  IC50: 37 ± 3 nM
A549 cells
  MMP, ratio of JC-1 aggregates to monomers: remarkably decreased
